Measurements: patent US6517871B1, “Bioenhanced formulations comprising eprosartan in oral solid dosage form” (SmithKline Beecham Corporation, priority 1998, dated 2003)
Counter-ions that a name gives are not always drawn.

Legend:
clinical = conditions: human, in vivo
Excerpt: Eprosartan is an amphiphilic molecule containing two acidic (allylic carboxylic acid and phenylic carboxylic acid) and one basic (imidazole) functional groups. At lower pH (below 2) the imidazole nitrogen will be protonated (form ii). As the pH increases, the allylic carboxylic group will be deprotonated (form iii). […] As the pH increases further, the phenylic carboxylic group will be depronated (form iv) followed by the deprotonation of the protonated imidazole group (form v). […] According to the pH-partitioning theory of absorption, only the unionized species (form ii) or the ion-neutral species (form iii) will be absorbed by passive diffusion. […] The time to maximum concentration is between 1 to 2.5 hours in fasted state and 2.5-4 hours in fed state. […] Additionally, since the commercial form of the drug is as its mesylate, which becomes dihydrated during the formulation process, high dose tablets (e.g., 600 mg tablets weigh 1,200.0 mg) may be difficult to swallow.

[1] = pH-solubility profiles (FIG. 2); assay type: physicochemical; conditions: pH >4.0 to 5.5, where the enteric coat starts to release

| SMILES | bioavailability (clinical) [%] | mean absolute bioavailability (clinical) | time to maximum concentration (clinical) [h] | drug solubility at initiation pHs [1] |
| --- | --- | --- | --- | --- |
| CCCCc1ncc(/C=C(\Cc2cccs2)C(=O)O)n1Cc1ccc(C(=O)O)cc1 [eprosartan mesylate, (E)-α-[2-n-Butyl-1-[(4-carboxyphenyl)methyl]-1H-imidazol-5-yl]methylene-2-thiophenepropionic acid monomethanesulfonate] | ~13 |  |  |  |
| CCCCc1ncc(/C=C(\Cc2cccs2)C(=O)O)n1Cc1ccc(C(=O)O)cc1 [eprosartan, (E)-α-[2-n-butyl-1-[(4-carboxyphenyl)methyl]-1H-imidazol-5-yl]methylene-2-thiophenepropionic acid] |  | approximately 13% | 1 to 2.5 | negligible |
